Results from patent US11384121B2, “Creation of peptide-based anti-tumor agent” (National University Corporation Hokkaido University, priority 2018, dated 2022).

Tests used:
[1] = test system: MIA PaCa-2 cell line transplanted; experiment: Tumor-cell-transplanted animal model assay 1, size of transplanted tumor, MIA PaCa-2; format: in vivo, BALB/c nude mice; conditions: MIA PaCa-2 (FIG. 2-1)
Description: (§1) Anti-asialo GM1 (rabbit) (Wako Pure Chemical Industries, Ltd.) was intraperitoneally administered to BALB/c nude mice, and the mice were grown at room temperature for 2 hours. To the back of each BALB/c nude mouse, 2×10^6 test cells were subcutaneously injected for transplantation. Compound 11 or compound 12 in a dose of 50 ng or 500 ng or in a dose of 40 ng or 400 ng was intraperitoneally administered to each mouse on each day, from the day following the date of transplantation for mice with the SW620 cell line transplanted, from the day 1 week after the date of transplantation for mice with the MIA PaCa-2 cell line transplanted, and the growth of a tumor mass in each transplantation site was observed. No compound was administered to a control group, and echinomycin in a dose of 40 ng or 400 ng was intraperitoneally administered to each mouse in groups with administration of echinomycin on each day.
(§2) Each of the control group, groups with administration of echinomycin, groups with administration of compound 11, and groups with administration of compound 12 was n=5.

[2] = Tumor-cell-transplanted animal model assay 2, body weight variation; format: in vivo, BALB/c nude mice; conditions: MIA PaCa-2 transplanted mice
Description: Anti-asialo GM1 (rabbit) (Wako Pure Chemical Industries, Ltd.) was intraperitoneally administered to BALB/c nude mice, and the mice were grown at room temperature for 2 hours. To the back of each BALB/c nude mouse, 2×10^6 cells of the MIA PaCa-2 cell line were subcutaneously injected for transplantation. Compound 11 or compound 12 in a dose of 500 ng was intraperitoneally administered to each mouse on each day from the day following the date of transplantation, and body weight was measured on each day (n=5 for each group). No compound was administered to a control group, and echinomycin in a dose of 400 ng was intraperitoneally administered to each mouse in a group with administration of echinomycin on each day, and body weight was measured at the date of slaughter (n=5 for each group).

HIF-1a = conditions: Non Patent Literature 2; cited from earlier work
activated caspase-3 = experiment: Detection of activated caspase-3 (Western blotting); format: cell-based; conditions: 10 ng/mL, 48 hours; SW620; actin as endogenous control
Description: The SW620 cell line aliquoted into a 6-well plate at 2.0×10^3 cells/well was cultured for 24 hours, and compound 12 was then added to the culture solution to reach a final concentration of 10 ng/mL to initiate incubation, and the plate was taken out after 48 hours.
Proteins were collected by using a commercially available protein collection kit (mammalian cell extraction kit (BioVision, Inc.)) in accordance with a protocol provided by the manufacturer, and activated caspase-3 was quantified through Western blotting with a specific antibody to cleaved caspase-3 (Cell Signaling Technology, Inc.). Actin was used as an endogenous control. No compound was added for a control group, and echinomycin was added for a group with administration of echinomycin so that the final concentration of echinomycin reached 10 ng/mL, and the above-described operations were performed.
(§3) Each of the control group, group with administration of echinomycin, and group with administration of compound 12 was n=4.

[3] = Non Patent Literature 1; clinical development abandoned; cited from earlier work
Suit2 cell line = experiment: SRB assay, pancreatic cancer cell (SuiT-2 cell) line; format: cell-based; conditions: 100 ng/mL or more
Description: (§4) Used for cells were an SW620 cell line (ATCC), which was a colorectal cancer cell line, and an MIA PaCa-2 cell line (ATCC) and a Suit2 cell line (Health Science Research Resources Bank), which were a pancreatic cancer cell line.
(§5) Culture of the MIA PaCa-2 cell line and the Suit2 cell line was performed by using a DMEM with 10% FBS, 2 mM L-glutamine, 50 U/mL penicillin, and 50 μg/mL streptomycin. Culture of the SW620 cell line was performed by using RPMI1640 with 10% FBS, 2 mM L-glutamine, 50 U/mL penicillin, and 50 μg/mL streptomycin.
(§6) Test cells aliquoted into a 96-well plate at 1.0×10^4 cells/well were cultured for 24 hours, and compound 11 or compound 12 was then added to the culture solution to reach a final concentration of 1 ng/mL, 10 ng/mL, 100 ng/mL, or 1000 ng/mL to initiate incubation, and the plate was taken out after 24 hours, 48 hours, 72 hours, and 96 hours (n=5 for each case).
(§7) To each well of the plate taken out, 100 μL of 10% trichloroacetic acid (TCA) was added, the plate was left to stand at 4° C. for 1 hour, and washed four times with pure water. […] Cell density after each incubation time was determined by measuring OD at 510 nm for stained cells lysed in 10 mM Tris buffer solution. […]

SW620 cell line [4] = experiment: SRB assay, colorectal cancer cell (SW620 cell) line; format: cell-based
Description: as §4, §5, §6, §7

[5] = test system: SW620 cell line transplanted; experiment: Tumor-cell-transplanted animal model assay 1, size of transplanted tumor, SW620; format: in vivo, BALB/c nude mice
Description: as §1, §2

SW620 cell line [6] = experiment: Cell death inducibility, TUNEL method; format: cell-based; conditions: 10 ng/mL, 48 hours
Description: The SW620 cell line aliquoted into a 4-well glass chamber slide at 5.0×10^4 cells/well was cultured for 24 hours, and compound 12 was then added to the culture solution to reach a final concentration of 10 ng/mL to initiate incubation, and the slide was taken out after 48 hours.
By using a commercially available cell death detection kit utilizing a TUNEL (TdT-mediated dUTP nick-end labeling) method (In Situ Cell Death Detection Kit and TMR red (Roche Diagnostic)) in accordance with a protocol provided by the manufacturer, TUNEL-stained cells (i.e., cells that underwent cell death) were detected and counted. No compound was added for a control group, and echinomycin was added for a group with administration of echinomycin so that the final concentration of echinomycin reached 10 ng/mL, and the above-described operations were performed.
as §3

MIA PaCa-2 cell line = experiment: SRB assay, pancreatic cancer cell (MIA PaCa-2 cell) line; format: cell-based
Description: as §4, §5, §6, §7

[7] = 500 ng intraperitoneally each day

| Compound | size of transplanted tumor [1, 7] | tumor size reduction compared with echinomycin ([1]; 500 ng versus 400 ng of echinomycin) | body weight on day 28 of administration [2, 7] | HIF-1a inhibitory activity (HIF-1a) | amount of activated caspase-3, relative to control group (100±45) (activated caspase-3) | toxicity in phase 2 clinical trial [3] | body weight on day 28 of administration ([2]; 400 ng intraperitoneally each day) | absorbance (cell density, OD at 510 nm) versus control; activity to suppress the growth of cancer cells (Suit2 cell line) | size of transplanted tumor ([1]; any of the loadings, intraperitoneally each day) | growth-suppressing activity at low concentration compared with echinomycin (SW620 cell line [4]; 10 ng/mL) | absorbance (cell density, OD at 510 nm) versus control; activity to suppress the growth of cancer cells (SW620 cell line [4]; 100 ng/mL or more) | tumor size reduction compared with echinomycin ([5]; 40 ng versus 400 ng of echinomycin, cell line not given) | size of transplanted tumor ([5]; any of the loadings, intraperitoneally each day, SW620 (FIG. 2-2)) | number of cells that underwent cell death (TUNEL-stained cells) (SW620 cell line [6]) | growth-suppressing activity at low concentration compared with echinomycin (MIA PaCa-2 cell line; 10 ng/mL) | absorbance (cell density, OD at 510 nm) versus control; activity to suppress the growth of cancer cells (MIA PaCa-2 cell line; 100 ng/mL or more) |
| --- | --- | --- | --- | --- | --- | --- | --- | --- | --- | --- | --- | --- | --- | --- | --- | --- |
| CC(C)[C@H]1C(=O)OC[C@@H](NC(=O)c2cnc3ccccc3n2)C(=O)N[C@@H](C)C(=O)N(C)[C@H]2CSC[C@@H](C(=O)N1C)N(C)C(=O)[C@H](C)NC(=O)[C@H](NC(=O)c1cnc3ccccc3n1)COC(=O)[C@H](C(C)C)N(C)C2=O [compound 11] | Reduction in the size of transplanted tumor | comparable with that provided by administration of 400 ng of echinomycin | Large reduction in body weight was not found |  |  |  |  |  |  |  |  |  |  |  |  |  |
| CS[C@H]1SC[C@H]2C(=O)N(C)[C@@H](C(C)C)C(=O)OC[C@@H](NC(=O)c3cnc4ccccc4n3)C(=O)N[C@@H](C)C(=O)N(C)[C@@H]1C(=O)N(C)[C@@H](C(C)C)C(=O)OC[C@@H](NC(=O)c1cnc3ccccc3n1)C(=O)N[C@@H](C)C(=O)N2C [echinomycin, reference compound] |  |  |  | HIF-1a inhibitory activity | 362±176 | toxicity | Large reduction in body weight was not found |  |  |  |  |  |  |  |  |  |
| CC(C)[C@H]1C(=O)OC[C@@H](NC(=O)c2nc3ccccc3cc2O)C(=O)N[C@@H](C)C(=O)N(C)[C@H]2CSC[C@@H](C(=O)N1C)N(C)C(=O)[C@H](C)NC(=O)[C@H](NC(=O)c1nc3ccccc3cc1O)COC(=O)[C@H](C(C)C)N(C)C2=O [compound 12] |  |  | Large reduction in body weight was not found |  | 1107±273 |  |  | significant difference in absorbance | reduction in the size of transplanted tumor | higher than that of echinomycin | significant difference in absorbance | comparable with that of administration of 400 ng of echinomycin | reduction in the size of transplanted tumor | significantly larger than those for the control group and the group with administration of echinomycin | higher than that of echinomycin | significant difference in absorbance |
